# According to patent US11939345B2, “Physiologically stable fluorophore and performing fluorescence probing” (Government of the United States of America, as represented …, priority 2019, dated 2024):
# How the values were obtained:
# [1] = Photoluminescence excitation/emission and absorption spectra; format: physicochemical
# Description: With regard to assessment of photoluminescence properties of labeled CNF, photoluminescence excitation (PLE) spectroscopy maps and line scans were obtained with spectrofluorometer and corrected for the instrument's source spectral distribution and detector spectral response. Excitation wavelengths were scanned in 5 nm increments using a 450 W xenon lamp through a 2 nm slit. Emitted light was collected at 90° and measured using a liquid N2-cooled InGaAs detector over 2 nm increments through a 2 nm slit. The fluorescence emission spectra of mDTEB-CNF and mDTEB-seCNF were created using an excitation wavelength (λEx) of 514 nm with emission wavelengths from 530 nm to 650 nm. An excitation plot was created with an emission wavelength (λEm) of 540 nm with excitation wavelengths from 400 nm to 530 nm. The UV-Vis absorption spectra were collected with a UV-Vis-NIR spectrophotometer. The pH stability of mDTEB-CNF and mDTEB-seCNF were evaluated by measuring fluorescence intensity using a Nanolog-3 spectrofluorometer. Buffered solutions containing 0.5 mg/mL labeled CNF in the range of pH 2 to 10 were equilibrated to 37° C., and the fluorescence intensity was measured at λEm 540 nm. […] The photoluminescence spectra of autoclaved washed fibers, the collected supernatants, and the controls were recorded using the spectrofluorometer as described above. The concentration-dependence of the labeled CNF fluorescence was assessed by measuring the fluorescence intensity of labeled CNF diluted to concentrations between 2 μg/mL and 2 mg/mL using PBS buffer or deionized water. Fluorescence intensity was recorded on a multimode microplate reader equipped with monochromator optics at λEx 514 nm and λEm 540 nm. […] Each suspension was measured in triplicate using 200 μL samples. […] For fluorescence images, dilute labeled CNF suspensions were deposited onto an ultraviolet ozone (UVO)-treated glass slides and dried at room temperature. […]
# Photoluminescence properties (excitation and emission spectra) of the mDTEB dye and mDTEB-seCNF were recorded using fluorescence spectroscopy. […]
# [2] = pH stability of fluorescence intensity; format: physicochemical; conditions: Example 2; FIG. 22B
# Description: With regard to assessment of photoluminescence properties of labeled CNF, photoluminescence excitation (PLE) spectroscopy maps and line scans were obtained with spectrofluorometer and corrected for the instrument's source spectral distribution and detector spectral response. Excitation wavelengths were scanned in 5 nm increments using a 450 W xenon lamp through a 2 nm slit. Emitted light was collected at 90° and measured using a liquid N2-cooled InGaAs detector over 2 nm increments through a 2 nm slit. The fluorescence emission spectra of mDTEB-CNF and mDTEB-seCNF were created using an excitation wavelength (λEx) of 514 nm with emission wavelengths from 530 nm to 650 nm. […] The pH stability of mDTEB-CNF and mDTEB-seCNF were evaluated by measuring fluorescence intensity using a Nanolog-3 spectrofluorometer. Buffered solutions containing 0.5 mg/mL labeled CNF in the range of pH 2 to 10 were equilibrated to 37° C., and the fluorescence intensity was measured at λEm 540 nm. […] The photoluminescence spectra of autoclaved washed fibers, the collected supernatants, and the controls were recorded using the spectrofluorometer as described above. The concentration-dependence of the labeled CNF fluorescence was assessed by measuring the fluorescence intensity of labeled CNF diluted to concentrations between 2 μg/mL and 2 mg/mL using PBS buffer or deionized water. […]
smiles,measurement,setting,value
"CCC1=C(C)C2=C(c3ccc(Oc4nc(Cl)nc(Cl)n4)cc3)c3c(C)c(CC)c(C)n3[B-](F)(F)[N+]2=C1C [mDTEB, 10-(4-((4,6-dichloro-1,3,5-triazin-2-yl)oxy)phenyl)-2,8-diethyl-5,5-difluoro-1,3,7,9-tetramethyl-5H-414,514-dipyrrolo[1,2-c:2′,1′-f] [1,3,2]diazaborinine]",Stokes shift,[1],36 nm
same,absorbance peak,"[1]; FIG. 22A, in water",514 nm
same,maximum emission intensity wavelength / emission peak,[1]; fluorescence spectroscopy,540 nm
same,emission intensity as a function of pH,[2],stable to a wide range of pH values
